Converted amounts (≈) assume the structure as drawn.
Test system: Mycobacterium tuberculosis
Test: Antimycobacterial activity against isoniazid, rifampicin and ethambuto-resistant Mycobacterium tuberculosis using compound level ranging from 0.3125 to 5 ug/mL after 7 days by resazurin reduction test
Type: functional
Conditions: 168 h

SMILES	MIC
Cc1ccc(/C=N/NC(=O)c2cnc3c(C(F)(F)F)cccc3c2O)cc1	> 50 µg/mL
Cn1cccc1/C=N\NC(=O)c1cnc2c(C(F)(F)F)cccc2c1O	6.25 µg/mL (≈ 17.3 µM)
O=C(N/N=C/c1cc(F)ccc1O)c1cnc2c(C(F)(F)F)cccc2c1O	> 50 µg/mL
COc1ccc(NC(=O)NNC(=O)c2cnc3c(C(F)(F)F)cccc3c2O)cc1	12.5 µg/mL (≈ 29.7 µM)
Cc1[nH]cnc1/C=N/NC(=O)c1cnc2c(C(F)(F)F)cccc2c1O	> 50 µg/mL
O=C(NNC(=S)Nc1ccccc1F)c1cnc2c(C(F)(F)F)cccc2c1O	12.5 µg/mL (≈ 29.5 µM)
CCc1ccc(NC(=O)NNC(=O)c2cnc3c(C(F)(F)F)cccc3c2O)cc1	> 50 µg/mL
COc1ccc2[nH]cc(/C=N/NC(=O)c3cnc4c(C(F)(F)F)cccc4c3O)c2c1	6.25 µg/mL (≈ 14.6 µM)
COc1ccc(/C=N/NC(=O)c2cnc3c(C(F)(F)F)cccc3c2O)cc1O	> 50 µg/mL
O=C(N/N=C/c1cnc[nH]1)c1cnc2c(C(F)(F)F)cccc2c1O	> 50 µg/mL
COc1ccc(/C=N/NC(=O)c2cnc3c(C(F)(F)F)cccc3c2O)cc1	12.5 µg/mL (≈ 32.1 µM)
Cc1cccc2c(/C=N/NC(=O)c3cnc4c(C(F)(F)F)cccc4c3O)c[nH]c12	6.25 µg/mL (≈ 15.2 µM)
O=C(NNC(=O)c1cnc2c(C(F)(F)F)cccc2c1O)Nc1cccc(Cl)c1	25 µg/mL (≈ 58.9 µM)
Cc1cc(C)cc(NC(=O)NNC(=O)c2cnc3c(C(F)(F)F)cccc3c2O)c1	> 50 µg/mL
Cc1ccc(NC(=O)NNC(=O)c2cnc3c(C(F)(F)F)cccc3c2O)cc1	25 µg/mL (≈ 61.8 µM)
COC(=O)Cc1cc(/C=N/NC(=O)c2cnc3c(C(F)(F)F)cccc3c2O)co1	> 50 µg/mL
CO[C@H]1/C=C/O[C@@]2(C)Oc3c(C)c(O)c4c(O)c(c(/C=N/N5CCN(C)CC5)c(O)c4c3C2=O)NC(=O)/C(C)=C\C=C\[C@H](C)[C@H](O)[C@@H](C)[C@@H](O)[C@@H](C)[C@H](OC(C)=O)[C@@H]1C [RIFAMPIN]	25 µg/mL (≈ 30.4 µM)
NNC(=O)c1ccncc1 [ISONIAZID]	12.5 µg/mL (≈ 91.1 µM)
COc1ccc(NC(=S)NNC(=O)c2cnc3c(C(F)(F)F)cccc3c2O)cc1	> 50 µg/mL
O=C(NNC(=S)Nc1cccc(Cl)c1)c1cnc2c(C(F)(F)F)cccc2c1O	25 µg/mL (≈ 56.7 µM)
COc1ccc(/C=N/NC(=O)c2cnc3c(C(F)(F)F)cccc3c2O)c(F)c1	6.25 µg/mL (≈ 15.3 µM)
Cn1nnc2cc(/C=N\NC(=O)c3cnc4c(C(F)(F)F)cccc4c3O)ccc21	> 50 µg/mL
O=C(N/N=C/c1ccc(OC(F)(F)C(F)F)cc1)c1cnc2c(C(F)(F)F)cccc2c1O	25 µg/mL (≈ 52.6 µM)

From ChEMBL document CHEMBL1909590, “Design, synthesis and docking studies of new quinoline-3-carbohydrazide derivatives as antitubercular agents” (2011)
